Earlier results on one compound are cited in US6537592B2, “Extracts of kava-kava” (Kava Pharmaceuticals, Inc., priority 2000, dated 2003).

The conditions of this series: at 21° C., water.

Molecules are shown by their SMILES.

Regarding `COC1=CC(=O)O[C@@H](/C=C/c2ccccc2)C1` [kawain], the maximum solubility entry is “about 2.2 mg/100 ml water”.
